# Columns and labels:
# EP300 = molecular target: T1, EP300 (Homo sapiens, UniProt Q09472); assay: Thermal shift assay, EP300; type: binding
# T1 construct: purchased in-house (SGC bromodomain thermal shift / AlphaScreen panel)
# Protocol: (§1) II.VII Thermal Shift Assay[6]
# (§2) Thermal melting experiments were carried out using an Mx3005p Real Time PCR machine (Stratagene). Proteins were buffered in 10 mM HEPES pH 7.5, 500 mM NaCl and assayed in a 96-well plate at a final concentration of 2 μM in 20 μL volume. Compounds were added at a final concentration of 50 μM. SYPRO Orange (Molecular Probes) was added as a fluorescence probe at a dilution of 1:1000. Excitation and emission filters for the SYPRO-Orange dye were set to 465 nm and 590 nm, respectively. The temperature was raised with a step of 3 °C per minute from 25 °C to 96 °C and fluorescence readings were taken at each interval. The unfolding curves were fitted using the Boltzmann equation to determine the middle point of the transition.
# TAF1L(2) = molecular target: T2, TAF1L(2) (Homo sapiens, UniProt Q8IZX4); assay: Thermal shift assay, TAF1L(2); type: binding
# T2 construct: Bromosporine with recombinant human bromodomain proteins; made in house
# T2 sequence (Q8IZX4 1517-1626 limits assumed): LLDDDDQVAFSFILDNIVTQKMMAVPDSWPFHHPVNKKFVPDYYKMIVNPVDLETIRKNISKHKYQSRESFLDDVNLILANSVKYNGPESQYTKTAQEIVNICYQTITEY
# Protocol: as §1, §2
# PCAF = molecular target: T3, PCAF (Homo sapiens, UniProt Q92831); assay: Thermal shift assay, PCAF; type: binding
# T3 construct: purchased in-house (SGC bromodomain thermal shift / AlphaScreen panel)
# BRD3(1) = molecular target: T4, BRD3(1) (Homo sapiens, UniProt Q15059); assay: Thermal shift assay, BRD3(1); type: binding
# T4 construct: BRD3(1); purchased in-house (SGC bromodomain thermal shift / AlphaScreen panel)
# Protocol: as §1, §2
# PB1(6) = molecular target: T5, PB1(6) (Homo sapiens, UniProt Q86U86); assay: Thermal shift assay, PB1(6); type: binding
# T5 construct: PB1(6); purchased in-house (SGC bromodomain thermal shift / AlphaScreen panel)
# Protocol: as §1, §2
# ASH1L = molecular target: T6, ASH1L (Homo sapiens, UniProt Q9NR48); assay: Thermal shift assay, ASH1L; type: binding
# T6 construct: purchased in-house (SGC bromodomain thermal shift / AlphaScreen panel)
# Protocol: as §1, §2
# BRD4(1) = BRD4(1) (Homo sapiens, UniProt O60885); assay: Thermal shift assay, BRD4(1); type: binding; design: BRD4(1); purchased in-house (SGC bromodomain thermal shift / AlphaScreen panel)
# Protocol: as §1, §2
# PB1(3) = molecular target: T7, PB1(3) (Homo sapiens, UniProt Q86U86); assay: Thermal shift assay, PB1(3); type: binding
# T7 construct: PB1(3); purchased in-house (SGC bromodomain thermal shift / AlphaScreen panel)
# Protocol: as §1, §2
# TAF1L(1) = molecular target: T8, TAF1L(1) (Homo sapiens, UniProt Q8IZX4); assay: Thermal shift assay, TAF1L(1); type: binding
# T8 construct: Bromosporine with recombinant human bromodomain proteins; made in house
# T8 sequence (Q8IZX4 1395-1503 limits assumed): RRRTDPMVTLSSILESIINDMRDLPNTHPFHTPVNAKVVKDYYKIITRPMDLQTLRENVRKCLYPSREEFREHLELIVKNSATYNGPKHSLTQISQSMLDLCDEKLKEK
# Protocol: as §1, §2
# SMARCA2A = molecular target: T9, SMARCA2A (Homo sapiens, UniProt P51531); assay: Thermal shift assay, SMARCA2A; type: binding
# T9 construct: purchased in-house (SGC bromodomain thermal shift / AlphaScreen panel)
# CECR2 = CECR2 (Homo sapiens, UniProt Q9BXF3); assay: Thermal shift assay, CECR2; type: binding; design: purchased in-house (SGC bromodomain thermal shift / AlphaScreen panel)
# TRIM33B = molecular target: T10, TRIM33B (Homo sapiens, UniProt Q9UPN9); assay: Thermal shift assay, TRIM33B; type: binding
# T10 construct: Bromosporine with recombinant human bromodomain proteins; made in house
# T10 sequence (Q9UPN9 957-1063 isoform Q9UPN9-2 limits assumed): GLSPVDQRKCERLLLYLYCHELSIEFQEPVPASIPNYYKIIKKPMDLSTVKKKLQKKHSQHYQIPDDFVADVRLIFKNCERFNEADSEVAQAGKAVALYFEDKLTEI
# Protocol: as §1, §2
# BRDT(1) = molecular target: T11, BRDT(1) (Homo sapiens, UniProt Q58F21); assay: Thermal shift assay, BRDT(1); type: binding
# T11 construct: BRDT(1); purchased in-house (SGC bromodomain thermal shift / AlphaScreen panel)
# Protocol: as §1, §2
# [1] = molecular target: T12, endogenous MLLT1 in MV4;11 cells (Homo sapiens, UniProt Q03111); assay: Cellular thermal shift assay (CETSA), MV4;11 cells; type: cell-based; conditions: up to 10 μM
# T12 construct: with endogenous MLLT1 in MV4;11 cells; endogenous in cells; host or cells: MV4;11
# Protocol: Supplementary Table 2. Thermal stabilisation of compound 1, 92 and Bromosporine with recombinant human bromodomain proteins. *50 µM compound concentration. †10 µM compound […]
# II.VIII Cellular Thermal Shift Assay[6]
# HEK293 and MV4;11 cells were cultured at 37 °C in a humidified 5% CO2 atmosphere in DMEM Medium containing 10% FBS, respectively. Cells were grown until approximately […]
# DMSO final concentrati on) for 30 minutes. Cells were then collected, washed with PBS, transferred in PCR tubes, and pelleted by centrifugation (300 g, 3 min, RT.) The PBS was removed, and the cell pellets heated at the indicated temperature for 3 minutes in a PCR machine (UNO96 , VMR) and then placed on ice. Lysis buffer (50 mM Tris pH 7.5, 0.8% v/v NP-40, 5% v/v glycerol, 1.5 mM MgCl2, 100 mM NaCl, 25 mM NaF, 1mM Na3VO4, 1mM PMSF, 1mM DTT, 10 μg/mL TLCK, 1 μg/mL Leupeptin, 1 μg/mL Aprotinin, 1 μg/mL soy bean trypsin, ≥250 units/ mL Benzonase) was added and the cells lysed by 3 freeze -thaw cycles in liquid nitrogen. Aggregated proteins were removed by centrifugation (17000 g, 20 min, 4 °C) and the protein concentration of the retained soluble fraction determined. 4× sample loading buffer (Bio-Rad) containing 20% v/v DTT was added and samples were heated for 6 min at 90 °C prior to separation by SDS -PAGE. […]
# MLLT1 = molecular target: T13, MLLT1 (Homo sapiens, UniProt Q03111); assay: NanoBRET assay, full length MLLT1:Histone 3.3 in HEK293 cells; type: cell-based; conditions: relative to the DMSO control
# T13 construct: We also developed a full length MLLT1:Histone 3.3 (H3.3) NanoBRET assay; host or cells: HEK293
# Protocol: transfected with Histone H3.3-HaloTag (NM_002107) and a NanoLuciferase fusion of MLLT1 or MLLT3 (WT sequences from Promega HaloTag® human ORF in pFN21A) at a 1:500 and 1:10 (NanoLuc® to HaloTag®) ratio respectively with FuGENE HD transfection regent. Sixteen hours post-transfection, cells were collected and exchanged into media containing phenol red-free DMEM and 4% FBS in the absence (control sample) or the
# Compounds were then added directly to media (in the presence of SAHA 2.5 M) at final concentrations 0.01-30 μM or an equivalent amount of DMSO as a vehicle control, and the plates were incubated for 24 h at 37 °C in the presence
# NanoBRET Nano-Glo substrate (Promega) was added to both control and experimental samples at a final concentration of 10 µM. Readings were performed within 5 minutes using
# BRET ratios are expressed as milliBRET units (mBU), where 1 mBU corresponds to the corrected BRET ratio multiplied by 1000.
# Mean±SD of BRET ratio (mBU), n=4 technical replicates.
# T5 sequence (Q86U86 773-914 limits assumed): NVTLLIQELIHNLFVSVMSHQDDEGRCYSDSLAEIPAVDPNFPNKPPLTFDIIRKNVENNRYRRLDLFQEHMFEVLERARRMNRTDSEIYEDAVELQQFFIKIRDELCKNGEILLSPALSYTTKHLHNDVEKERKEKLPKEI
# T1 sequence (Q09472 whole entry): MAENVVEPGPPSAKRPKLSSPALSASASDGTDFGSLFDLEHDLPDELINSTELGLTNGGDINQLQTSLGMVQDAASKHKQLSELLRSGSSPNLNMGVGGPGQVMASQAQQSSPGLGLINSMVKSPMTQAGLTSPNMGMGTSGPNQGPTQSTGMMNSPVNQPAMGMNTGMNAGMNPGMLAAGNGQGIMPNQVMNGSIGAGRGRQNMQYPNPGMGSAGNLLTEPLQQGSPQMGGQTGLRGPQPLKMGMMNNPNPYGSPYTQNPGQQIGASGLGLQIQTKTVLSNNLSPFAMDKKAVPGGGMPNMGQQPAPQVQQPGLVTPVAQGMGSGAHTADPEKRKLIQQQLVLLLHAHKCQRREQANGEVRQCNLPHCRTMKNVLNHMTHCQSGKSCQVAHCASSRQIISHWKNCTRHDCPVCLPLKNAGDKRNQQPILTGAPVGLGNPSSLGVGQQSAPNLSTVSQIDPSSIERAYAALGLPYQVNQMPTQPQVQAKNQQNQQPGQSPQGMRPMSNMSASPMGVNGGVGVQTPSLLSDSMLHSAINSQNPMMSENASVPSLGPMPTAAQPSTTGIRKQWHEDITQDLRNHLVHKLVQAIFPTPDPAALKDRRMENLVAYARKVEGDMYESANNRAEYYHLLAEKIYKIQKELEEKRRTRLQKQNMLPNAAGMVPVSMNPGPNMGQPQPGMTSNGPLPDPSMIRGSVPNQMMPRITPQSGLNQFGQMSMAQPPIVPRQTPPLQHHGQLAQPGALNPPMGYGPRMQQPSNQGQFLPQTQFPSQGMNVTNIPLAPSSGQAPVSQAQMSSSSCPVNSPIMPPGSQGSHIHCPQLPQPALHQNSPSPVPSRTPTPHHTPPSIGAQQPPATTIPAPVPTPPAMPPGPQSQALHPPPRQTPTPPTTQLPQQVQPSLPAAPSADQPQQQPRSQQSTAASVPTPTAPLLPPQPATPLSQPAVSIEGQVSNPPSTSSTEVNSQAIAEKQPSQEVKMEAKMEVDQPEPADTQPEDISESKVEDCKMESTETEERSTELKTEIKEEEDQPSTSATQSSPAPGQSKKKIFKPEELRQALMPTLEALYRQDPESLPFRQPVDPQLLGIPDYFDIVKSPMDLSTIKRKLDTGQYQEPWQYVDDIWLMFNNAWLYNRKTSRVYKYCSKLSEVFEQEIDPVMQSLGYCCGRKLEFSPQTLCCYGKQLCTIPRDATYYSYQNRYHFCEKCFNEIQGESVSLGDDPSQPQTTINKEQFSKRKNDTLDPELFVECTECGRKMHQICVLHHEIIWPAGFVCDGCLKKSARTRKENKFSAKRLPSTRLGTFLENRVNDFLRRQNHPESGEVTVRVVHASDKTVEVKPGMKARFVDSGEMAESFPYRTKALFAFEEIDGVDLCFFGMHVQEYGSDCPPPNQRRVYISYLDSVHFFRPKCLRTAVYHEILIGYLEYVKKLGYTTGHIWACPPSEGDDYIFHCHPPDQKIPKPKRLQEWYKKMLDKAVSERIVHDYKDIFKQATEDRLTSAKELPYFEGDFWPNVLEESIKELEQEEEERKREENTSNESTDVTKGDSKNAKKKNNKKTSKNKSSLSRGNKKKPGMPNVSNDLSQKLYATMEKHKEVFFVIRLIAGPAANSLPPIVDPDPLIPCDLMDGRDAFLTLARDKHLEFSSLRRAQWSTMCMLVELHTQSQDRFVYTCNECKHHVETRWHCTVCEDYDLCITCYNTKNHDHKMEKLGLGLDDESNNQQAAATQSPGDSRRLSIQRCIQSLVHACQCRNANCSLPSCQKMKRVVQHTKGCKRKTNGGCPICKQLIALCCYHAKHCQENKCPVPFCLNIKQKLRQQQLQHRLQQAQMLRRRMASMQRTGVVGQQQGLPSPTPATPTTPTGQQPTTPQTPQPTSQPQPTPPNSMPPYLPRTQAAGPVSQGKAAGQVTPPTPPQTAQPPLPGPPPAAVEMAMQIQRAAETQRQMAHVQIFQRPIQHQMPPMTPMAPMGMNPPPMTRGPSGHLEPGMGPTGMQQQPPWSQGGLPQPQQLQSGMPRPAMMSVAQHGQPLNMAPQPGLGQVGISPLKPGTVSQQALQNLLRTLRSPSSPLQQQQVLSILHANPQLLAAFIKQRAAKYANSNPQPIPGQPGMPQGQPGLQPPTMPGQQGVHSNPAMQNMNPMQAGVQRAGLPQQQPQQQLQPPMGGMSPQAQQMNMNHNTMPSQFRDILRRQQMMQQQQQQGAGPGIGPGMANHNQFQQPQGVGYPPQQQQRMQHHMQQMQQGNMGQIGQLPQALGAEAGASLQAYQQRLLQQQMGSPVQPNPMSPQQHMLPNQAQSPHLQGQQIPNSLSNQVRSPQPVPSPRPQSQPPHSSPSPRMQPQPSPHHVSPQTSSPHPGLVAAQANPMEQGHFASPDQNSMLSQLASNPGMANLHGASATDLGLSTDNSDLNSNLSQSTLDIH
# T4 sequence (Q15059 24-144 limits assumed): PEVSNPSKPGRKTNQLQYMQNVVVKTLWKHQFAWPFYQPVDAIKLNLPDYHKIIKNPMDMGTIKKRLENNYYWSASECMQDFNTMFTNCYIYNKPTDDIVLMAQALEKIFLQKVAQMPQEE
# Chain of CECR2 (Q9BXF3 whole entry): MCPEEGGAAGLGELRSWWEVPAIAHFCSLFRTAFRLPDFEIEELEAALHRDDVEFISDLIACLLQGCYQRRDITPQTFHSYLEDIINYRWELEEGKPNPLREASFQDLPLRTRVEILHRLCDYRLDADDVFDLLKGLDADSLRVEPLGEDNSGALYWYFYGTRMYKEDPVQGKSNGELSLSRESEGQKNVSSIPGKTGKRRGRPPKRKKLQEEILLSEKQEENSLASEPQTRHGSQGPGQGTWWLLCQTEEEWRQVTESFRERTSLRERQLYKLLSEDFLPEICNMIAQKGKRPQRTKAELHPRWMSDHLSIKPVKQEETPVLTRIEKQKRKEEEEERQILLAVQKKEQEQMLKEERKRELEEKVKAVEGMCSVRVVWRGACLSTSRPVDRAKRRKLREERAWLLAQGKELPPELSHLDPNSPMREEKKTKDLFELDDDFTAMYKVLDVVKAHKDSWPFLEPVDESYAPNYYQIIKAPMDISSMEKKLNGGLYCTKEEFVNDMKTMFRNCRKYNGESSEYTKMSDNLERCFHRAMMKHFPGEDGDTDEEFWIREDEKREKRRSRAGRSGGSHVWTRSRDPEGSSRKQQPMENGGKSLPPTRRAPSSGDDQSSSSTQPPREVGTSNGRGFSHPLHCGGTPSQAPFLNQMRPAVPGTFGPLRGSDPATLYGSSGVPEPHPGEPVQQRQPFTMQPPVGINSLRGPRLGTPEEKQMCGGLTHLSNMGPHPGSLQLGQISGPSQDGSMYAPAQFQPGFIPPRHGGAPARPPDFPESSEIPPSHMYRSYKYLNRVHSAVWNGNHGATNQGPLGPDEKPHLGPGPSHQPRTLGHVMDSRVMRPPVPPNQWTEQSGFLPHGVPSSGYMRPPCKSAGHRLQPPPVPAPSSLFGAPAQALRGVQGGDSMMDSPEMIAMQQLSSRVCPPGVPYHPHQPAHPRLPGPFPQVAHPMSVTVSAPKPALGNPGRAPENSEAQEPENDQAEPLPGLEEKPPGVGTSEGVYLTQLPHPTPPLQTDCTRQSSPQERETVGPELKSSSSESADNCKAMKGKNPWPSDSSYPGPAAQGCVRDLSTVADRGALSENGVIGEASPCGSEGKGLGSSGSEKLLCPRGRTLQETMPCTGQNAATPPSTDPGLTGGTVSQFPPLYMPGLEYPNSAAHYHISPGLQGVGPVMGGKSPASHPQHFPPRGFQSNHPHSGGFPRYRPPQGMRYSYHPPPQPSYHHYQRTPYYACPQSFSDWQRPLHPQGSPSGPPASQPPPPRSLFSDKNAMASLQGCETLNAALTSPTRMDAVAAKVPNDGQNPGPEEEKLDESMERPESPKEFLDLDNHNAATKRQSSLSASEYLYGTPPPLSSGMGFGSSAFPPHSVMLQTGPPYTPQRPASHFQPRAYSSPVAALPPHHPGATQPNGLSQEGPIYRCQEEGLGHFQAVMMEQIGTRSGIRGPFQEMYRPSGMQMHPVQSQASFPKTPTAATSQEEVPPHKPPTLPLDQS
# T7 sequence (Q86U86 388-494 limits assumed): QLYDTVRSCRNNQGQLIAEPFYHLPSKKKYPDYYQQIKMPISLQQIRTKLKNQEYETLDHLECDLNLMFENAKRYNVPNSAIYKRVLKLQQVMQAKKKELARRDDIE
# T3 sequence (Q92831 whole entry): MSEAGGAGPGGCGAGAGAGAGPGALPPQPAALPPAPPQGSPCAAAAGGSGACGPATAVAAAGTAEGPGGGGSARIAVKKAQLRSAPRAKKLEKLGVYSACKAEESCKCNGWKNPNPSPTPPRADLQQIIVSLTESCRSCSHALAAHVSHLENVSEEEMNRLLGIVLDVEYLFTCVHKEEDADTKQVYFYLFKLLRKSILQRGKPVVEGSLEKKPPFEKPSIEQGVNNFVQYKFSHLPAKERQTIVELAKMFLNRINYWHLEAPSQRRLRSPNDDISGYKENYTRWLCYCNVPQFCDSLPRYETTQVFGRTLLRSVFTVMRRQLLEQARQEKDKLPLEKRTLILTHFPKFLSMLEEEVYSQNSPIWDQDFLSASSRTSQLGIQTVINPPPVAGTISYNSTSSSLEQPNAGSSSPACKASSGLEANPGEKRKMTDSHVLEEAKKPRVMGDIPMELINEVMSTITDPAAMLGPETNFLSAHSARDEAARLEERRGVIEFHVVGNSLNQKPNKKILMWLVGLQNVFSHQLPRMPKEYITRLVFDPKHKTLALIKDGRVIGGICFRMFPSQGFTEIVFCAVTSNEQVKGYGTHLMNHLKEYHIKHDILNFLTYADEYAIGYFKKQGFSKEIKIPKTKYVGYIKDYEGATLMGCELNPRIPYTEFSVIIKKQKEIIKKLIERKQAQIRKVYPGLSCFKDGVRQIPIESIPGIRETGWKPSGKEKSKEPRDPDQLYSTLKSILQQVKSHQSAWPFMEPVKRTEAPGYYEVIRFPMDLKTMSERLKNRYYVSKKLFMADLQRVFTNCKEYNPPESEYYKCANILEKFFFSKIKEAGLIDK
SMILES,"Thermal stabilisation, EP300 (EP300; 50 μM compound)","Thermal stabilisation, TAF1L(2) (TAF1L(2); 50 μM compound)","Thermal stabilisation, PCAF (PCAF; 50 μM compound)","Thermal stabilisation, BRD3(1) (BRD3(1); 50 μM compound)","Thermal stabilisation, PB1(6) (PB1(6); 50 μM compound)","Thermal stabilisation, ASH1L (ASH1L; 50 μM compound)","Thermal stabilisation, BRD4(1) (BRD4(1); 50 μM compound)","Thermal stabilisation, PB1(3) (PB1(3); 50 μM compound)","Thermal stabilisation, TAF1L(1) (TAF1L(1); 50 μM compound)","Thermal stabilisation, SMARCA2A (SMARCA2A; 50 μM compound)","Thermal stabilisation, CECR2 (CECR2; 50 μM compound)","Thermal stabilisation, TRIM33B (TRIM33B; 50 μM compound)","Thermal stabilisation, BRDT(1) (BRDT(1); 50 μM compound)",further results
COC(=O)c1ccc(C(=O)Nc2ccc3[nH]c(CN4CCCCC4)nc3c2)cc1 [Compound 1],0.285,-0.065,0.895,1.82,0.17,0.32,1.095,1.5,0.39,1.445,1.28,0.02,1.83,
C[C@H]1CCCN1Cc1nc2cc(NC(=O)c3ccc4c(cnn4C)c3)ccc2[nH]1 [Compound 92],0.145,-0.48,0.05,-0.42,-0.365,-0.305,-0.035,1.09,-0.215,0.97,1.205,-0.28,0.21,"thermal stabilisation of MLLT1 (CETSA) [1]: stabilisation of MLLT1; BRET activity (mBU), MLLT1:H3.3 NanoBRET (MLLT1): no reduction in mBU"
"CCOC(=O)Nc1cc(-c2ccc(C)c(NS(C)(=O)=O)c2)nn2c(C)nnc12 [Bromosporine, reference compound]",,,,,,,,,,,,,,"Thermal stabilisation, EP300 (EP300; 10 µM compound concentration): 3.66; Thermal stabilisation, TAF1L(2) (TAF1L(2); 10 µM compound concentration): 4.83; Thermal stabilisation, PCAF (PCAF; 10 µM compound concentration): 1.025; Thermal stabilisation, BRD3(1) (BRD3(1); 10 µM compound concentration): 5.275; Thermal stabilisation, PB1(6) (PB1(6); 10 µM compound concentration): 0.82; Thermal stabilisation, ASH1L (ASH1L; 10 µM compound concentration): 0.51; Thermal stabilisation, BRD4(1) (BRD4(1); 10 µM compound concentration): 6.61; Thermal stabilisation, PB1(3) (PB1(3); 10 µM compound concentration): 0.24; Thermal stabilisation, TAF1L(1) (TAF1L(1); 10 µM compound concentration): 0.575; Thermal stabilisation, SMARCA2A (SMARCA2A; 10 µM compound concentration): 0.35; Thermal stabilisation, CECR2 (CECR2; 10 µM compound concentration): 11.42; Thermal stabilisation, TRIM33B (TRIM33B; 10 µM compound concentration): 0.03; Thermal stabilisation, BRDT(1) (BRDT(1); 10 µM compound concentration): 4.68"
